According to patent US20260226071A1, “2, 4-DIANILINOPYRIMIDINE-BASED AURORA-A KINASE SELECTIVE DEGRADATION INDUCING COMPOUNDS” (UPPTHERA, INC., priority 2023, published 2026):

Experiments:
Aurora kinase A (AURKA) = biological target: T1, Aurora kinase A (AURKA) (Homo sapiens, UniProt O14965); assay: Luciferase assay for AURKA in HeLa LgBit (AURKA-HiBit KI) cell line; assay type: cell-based; conditions: HeLa LgBit (AURKA-HiBit KI) cells, measured after 12 hours
T1 construct: endogenous in cells; host or cells: HeLa LgBit (AURKA-HiBit KI), CRISPR/Cas9 knock-in at the endogenous AURKA locus
T1 sequence (O14965 1-403): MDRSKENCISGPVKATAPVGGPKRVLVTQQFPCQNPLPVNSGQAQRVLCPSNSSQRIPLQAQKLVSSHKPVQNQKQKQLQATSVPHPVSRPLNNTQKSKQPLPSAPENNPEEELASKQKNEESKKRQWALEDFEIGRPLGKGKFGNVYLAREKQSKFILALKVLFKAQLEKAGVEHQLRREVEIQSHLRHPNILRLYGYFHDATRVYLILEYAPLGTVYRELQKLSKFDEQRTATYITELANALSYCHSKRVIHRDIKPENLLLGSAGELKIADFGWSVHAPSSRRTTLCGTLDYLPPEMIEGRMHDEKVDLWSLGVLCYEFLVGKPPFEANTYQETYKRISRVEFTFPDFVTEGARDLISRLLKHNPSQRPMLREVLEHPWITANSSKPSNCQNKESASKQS
Summary of the method: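 HeLa cells stably expressing LgBit, with HiBit knocked in at the C-terminus of endogenous AURKA; 3×10^4 cells seeded, 18 h, then Endurazine substrate 2 h. Compounds tested at 10 nM or 100 nM; luminescence read at 470-480 nm after 12 h as real-time read-out.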

NCI-H446 cell line = assay: Cell viability assay for NCI-H446 cell line; assay type: cell-based; conditions: Homo sapiens, NCI-H446, 120 h; H446 cells, 5 days culture, EZ-Cytox; read-out: IC50 value (Level)
Text: The NCI-H446 (hereafter H446) cell lines were provided from American Type Culture Collection (ATCC). For cell culture, RPMI medium 1640 (Gibco, Cat. No. 22400-089; Lot. No. 2522717), FBS (Gibco, Cat. No. 16000-044; Lot. No. 2716756P), Penicillin/Streptomycin (PS) (Gibco, Cat. No. 15140-122; Lot. No. 2585636), 75T cell culture flask (SPL, Cat. No. 70075), 96 well cell culture plate (SPL, Cat. No. 30096), PBS pH 7.4 (Gibco, Cat. No. 10010-023; Lot. No. 2561466), TrypLE™ Express (Gibco, Cat. No. 12605-010; Lot. No. 2492811), counting chamber (hematocytometer) (Hirschmann, Cat. No. 8100204) and 0.4% Trypan Blue solution (DYNEBIO, Cat. No. CBT3710; Lot. No. 20231017) were used. Cells were cultured in RPMI 1640 medium supplemented with 10% FBS and 1% PS and incubated at 37° C., 5% CO2 condition in CO2 incubator (ThermoScientific, Cat. No. 4111).
For experiment, the present compounds were fully dissolved in DMSO (Sigma-Aldrich Cat. No. D2438, Lot. No. RNBL7287.
In each well of 96-well cell culture plate, […] cells of H446 cell lines were seeded in 150 μl of total medium volume. After 24 hours of cell seeding, the present compounds were treated.
The present compounds were each diluted 3-folds from the highest concentration of 1000 nM to the lowest concentration of 0.15 nM. The compound was added to each well to make the total volume of […] and the cells were cultured for 5 days in CO2 incubator (Thermo Fisher Science, Cat. No. 4111).
Thereafter, 20 μl of EZ-Cytox (DOGEN, Cat. NO. EZ-3000, Lot. No. DLS2308) was added to each well and the cells were cultured for 4 hours at the same condition in CO2 incubator. After culture, the absorbance of the sample was measured by setting the wavelength of a plate reader (BMG Labtech, CLARIOstar Plus) to […]. The samples were shaked for 2 minutes in the plate reader before measurement.

O=C1CCC(c2ccc(N3CCC(CN4CCN(C(=O)Cc5ccc(Nc6ncc(F)c(Nc7ccc(C(=O)Nc8ccccc8Cl)cc7)n6)cc5)CC4)CC3)cc2)C(=O)N1 (stereo not drawn) [Compound 1, N-(2-chlorophenyl)-4-((2-((4-(2-(4-((1-(4-(2,6-dioxopiperidin-3-yl)phenyl)piperidin-4-yl)methyl)piperazin-1-yl)-2-oxoethyl)phenyl)amino)-5-fluoropyrimidin-4-yl)amino)benzamide]
luminescence value (Level) (Aurora kinase A (AURKA); 10 nM compound): C (C is 0.5 to 0.7)
luminescence value (Level) (Aurora kinase A (AURKA); 100 nM compound): A (A is <0.2)
IC50 (NCI-H446 cell line): 100 to 150 nM

O=C1CCC(c2ccc(N3CCN(CC4CCN(C(=O)c5ccc(Nc6ncc(F)c(Nc7ccc(C(=O)Nc8ccccc8Cl)cc7)n6)cc5)CC4)CC3)cc2)C(=O)N1 (stereo not drawn) [Compound 3, N-(2-chlorophenyl)-4-((2-((4-(4-((4-(4-(2,6-dioxopiperidin-3-yl)phenyl)piperazin-1-yl)methyl)piperidine-1-carbonyl)phenyl)amino)-5-fluoropyrimidin-4-yl)amino)benzamide]
luminescence value (Level) (Aurora kinase A (AURKA); 10 nM compound): C (C is 0.5 to 0.7)
luminescence value (Level) (Aurora kinase A (AURKA); 100 nM compound): A (A is <0.2)
IC50 (NCI-H446 cell line): 50 to 100 nM

CN(CC1CCN(c2ccc(C3CCC(=O)NC3=O)cc2)CC1)C1CCC(NC(=O)c2ccc(Nc3ncc(F)c(Nc4ccc(C(=O)Nc5ccccc5Cl)cc4)n3)cc2)CC1 (stereo not drawn) [Compound 4, N-(2-chlorophenyl)-4-((2-((4-((4-(((1-(4-(2,6-dioxopiperidin-3-yl)phenyl)piperidin-4-yl)methyl)(methyl)amino)cyclohexyl)carbamoyl)phenyl)amino)-5-fluoropyrimidin-4-yl)amino)benzamide]
luminescence value (Level) (Aurora kinase A (AURKA); 10 nM compound): C (C is 0.5 to 0.7)
luminescence value (Level) (Aurora kinase A (AURKA); 100 nM compound): A (A is <0.2)
IC50 (NCI-H446 cell line): 100 to 150 nM

O=C1CCC(c2ccc(N3CCN(CC(=O)N4CCC(NC(=O)c5ccc(Nc6ncc(F)c(Nc7ccc(C(=O)Nc8ccccc8Cl)cc7)n6)cc5)CC4)CC3)cc2)C(=O)N1 (stereo not drawn) [Compound 5, N-(2-chlorophenyl)-4-((2-((4-((1-(2-(4-(4-(2,6-dioxopiperidin-3-yl)phenyl)piperazin-1-yl)acetyl)piperidin-4-yl)carbamoyl)phenyl)amino)-5-fluoropyrimidin-4-yl)amino)benzamide]
luminescence value (Level) (Aurora kinase A (AURKA); 10 nM compound): B (B is 0.3 to 0.5)
luminescence value (Level) (Aurora kinase A (AURKA); 100 nM compound): A (A is <0.2)
IC50 (NCI-H446 cell line): < 50 nM

CC(CN1CCN(c2ccc(C3CCC(=O)NC3=O)cc2)CC1)C1CCN(NC(=O)c2ccc(Nc3ncc(F)c(Nc4ccc(C(=O)Nc5ccccc5Cl)cc4)n3)cc2)CC1 (stereo not drawn) [Compound 6, N-(2-chlorophenyl)-4-((2-((4-((4-(1-(4-(4-(2,6-dioxopiperidin-3-yl)phenyl)piperazin-1-yl)propan-2-yl)piperidin-1-yl)carbamoyl)phenyl)amino)-5-fluoropyrimidin-4-yl)amino)benzamide]
luminescence value (Level) (Aurora kinase A (AURKA); 10 nM compound): B (B is 0.3 to 0.5)
luminescence value (Level) (Aurora kinase A (AURKA); 100 nM compound): A (A is <0.2)
IC50 (NCI-H446 cell line): < 50 nM

O=C1CCC(c2ccc(N3CCN(CCC4CCN(NC(=O)c5ccc(Nc6ncc(F)c(Nc7ccc(C(=O)Nc8ccccc8Cl)cc7)n6)cc5)CC4)CC3)cc2)C(=O)N1 (stereo not drawn) [Compound 7, N-(2-chlorophenyl)-4-((2-((4-((4-(2-(4-(4-(2,6-dioxopiperidin-3-yl)phenyl)piperazin-1-yl)ethyl)piperidin-1-yl)carbamoyl)phenyl)amino)-5-fluoropyrimidin-4-yl)amino)benzamide]
luminescence value (Level) (Aurora kinase A (AURKA); 10 nM compound): A (A is <0.3)
luminescence value (Level) (Aurora kinase A (AURKA); 100 nM compound): A (A is <0.2)
IC50 (NCI-H446 cell line): < 50 nM

O=C1CCC(c2ccc(N3CC(CN4CCC(NC(=O)c5ccc(Nc6ncc(F)c(Nc7ccc(C(=O)Nc8ccccc8Cl)cc7)n6)cc5)CC4)C3)cc2)C(=O)N1 (stereo not drawn) [Compound 8, N-(2-chlorophenyl)-4-((2-((4-((1-((1-(4-(2,6-dioxopiperidin-3-yl)phenyl)azetidin-3-yl)methyl)piperidin-4-yl)carbamoyl)phenyl)amino)-5-fluoropyrimidin-4-yl)amino)benzamide]
luminescence value (Level) (Aurora kinase A (AURKA); 10 nM compound): B (B is 0.3 to 0.5)
luminescence value (Level) (Aurora kinase A (AURKA); 100 nM compound): A (A is <0.2)
IC50 (NCI-H446 cell line): < 50 nM

O=C1CCC(c2ccc(N3CCC(CN4CCC(NC(=O)c5ccc(Nc6ncc(F)c(Nc7ccc(C(=O)Nc8ccccc8Cl)cc7)n6)cc5)CC4)C3)cc2)C(=O)N1 (stereo not drawn) [Compound 9, N-(2-chlorophenyl)-4-((2-((4-((1-((1-(4-(2,6-dioxopiperidin-3-yl)phenyl)pyrrolidin-3-yl)methyl)piperidin-4-yl)carbamoyl)phenyl)amino)-5-fluoropyrimidin-4-yl)amino)benzamide]
luminescence value (Level) (Aurora kinase A (AURKA); 10 nM compound): B (B is 0.3 to 0.5)
luminescence value (Level) (Aurora kinase A (AURKA); 100 nM compound): A (A is <0.2)
IC50 (NCI-H446 cell line): < 50 nM

O=C1CCC(c2ccc(N3CCC(CCC(=O)N4CCC(NC(=O)c5ccc(Nc6ncc(F)c(Nc7ccc(C(=O)Nc8ccccc8Cl)cc7)n6)cc5)CC4)CC3)cc2)C(=O)N1 (stereo not drawn) [Compound 12, N-(2-chlorophenyl)-4-((2-((4-((1-(3-(1-(4-(2,6-dioxopiperidin-3-yl)phenyl)piperidin-4-yl)propanoyl)piperidin-4-yl)carbamoyl)phenyl)amino)-5-fluoropyrimidin-4-yl)amino)benzamide]
luminescence value (Level) (Aurora kinase A (AURKA); 10 nM compound): B (B is 0.3 to 0.5)
luminescence value (Level) (Aurora kinase A (AURKA); 100 nM compound): A (A is <0.2)
IC50 (NCI-H446 cell line): < 50 nM

O=C1CCC(c2ccc(N3CCN(Cc4ccc(NC(=O)c5ccc(Nc6ncc(F)c(Nc7ccc(C(=O)Nc8ccccc8Cl)cc7)n6)cc5)cc4)CC3)cc2)C(=O)N1 (stereo not drawn) [Compound 13, N-(2-chlorophenyl)-4-((2-((4-((4-((4-(4-(2,6-dioxopiperidin-3-yl)phenyl)piperazin-1-yl)methyl)phenyl)carbamoyl)phenyl)amino)-5-fluoropyrimidin-4-yl)amino)benzamide]
luminescence value (Level) (Aurora kinase A (AURKA); 10 nM compound): C (C is 0.5 to 0.7)
luminescence value (Level) (Aurora kinase A (AURKA); 100 nM compound): B (B is 0.2 to 0.4)
IC50 (NCI-H446 cell line): > 200 nM

O=C1CCC(c2ccc(N3CCN(C[C@H]4CC[C@H](NC(=O)c5ccc(Nc6ncc(F)c(Nc7ccc(C(=O)Nc8ccccc8Cl)cc7)n6)cc5)CC4)CC3)cc2)C(=O)N1 (stereo partly drawn) [Compound 16, N-(2-chlorophenyl)-4-((2-((4-(((1r,4r)-4-((4-(4-(2,6-dioxopiperidin-3-yl)phenyl)piperazin-1-yl)methyl)cyclohexyl)carbamoyl)phenyl)amino)-5-fluoropyrimidin-4-yl)amino)benzamide]
luminescence value (Level) (Aurora kinase A (AURKA); 10 nM compound): B (B is 0.3 to 0.5)
luminescence value (Level) (Aurora kinase A (AURKA); 100 nM compound): A (A is <0.2)
IC50 (NCI-H446 cell line): 50 to 100 nM

O=C1CCC(c2ccc(N3CCN(CC[C@H]4CC[C@H](NC(=O)c5ccc(Nc6ncc(F)c(Nc7ccc(C(=O)Nc8ccccc8Cl)cc7)n6)cc5)CC4)CC3)cc2)C(=O)N1 (stereo partly drawn) [Compound 17, N-(2-chlorophenyl)-4-((2-((4-(((1r,4r)-4-(2-(4-(4-(2,6-dioxopiperidin-3-yl)phenyl)piperazin-1-yl)ethyl)cyclohexyl)carbamoyl)phenyl)amino)-5-fluoropyrimidin-4-yl)amino)benzamide]
luminescence value (Level) (Aurora kinase A (AURKA); 10 nM compound): A (A is <0.3)
luminescence value (Level) (Aurora kinase A (AURKA); 100 nM compound): A (A is <0.2)
IC50 (NCI-H446 cell line): 50 to 100 nM

O=C1CCC(c2ccc(N3CCN(CCN4CCC(NC(=O)c5ccc(Nc6ncc(F)c(Nc7ccc(C(=O)Nc8ccccc8Cl)cc7)n6)cc5)CC4)CC3)cc2)C(=O)N1 (stereo not drawn) [Compound 18, N-(2-chlorophenyl)-4-((2-((4-((1-(2-(4-(4-(2,6-dioxopiperidin-3-yl)phenyl)piperazin-1-yl)ethyl)piperidin-4-yl)carbamoyl)phenyl)amino)-5-fluoropyrimidin-4-yl)amino) benzamide]
luminescence value (Level) (Aurora kinase A (AURKA); 10 nM compound): A (A is <0.3)
luminescence value (Level) (Aurora kinase A (AURKA); 100 nM compound): A (A is <0.2)
IC50 (NCI-H446 cell line): < 50 nM
